Experimental data reported in the SangsterLogP compilation.

assay: not given; details: not given

Row | Structure (SMILES) | logP
1 | CNC(=O)N(C)S(=O)(=O)Cc1ccccc1 | 1.18
2 | CNC(=O)N(C)S(=O)(=O)c1cccnc1 | 0.42

Other lines, results leading:

Row | logP | Structure (SMILES)
3 | 0.28 | NC(=O)NS(=O)(=O)Cc1ccccc1
4 | 0.54 | CNC(=O)NS(=O)(=O)Cc1ccccc1
5 | 0.54 | CN(C)C(=O)NS(=O)(=O)Cc1ccccc1

assay: method code SF-AS, from Cloux, J.; Crommen, J.; Delarge, J.; Pirard, M.; Thunus, L. (1988). Attempts at calculating hydrophobic constant of the sulfonylurea group. J Pharm Belg, 43(3)141-151.; details: not given

Row | Structure (SMILES) | logP
6 | CN(C)C(=O)NS(=O)(=O)c1ccccc1 | 0.28
7 | CC(C)(C)NC(=O)NS(=O)(=O)c1ccccc1 | 1.95
8 | CCCNC(=O)NS(=O)(=O)c1ccccc1 | 1.44
9 | NC(=O)NS(=O)(=O)c1ccccc1 | 0.28

Next, values leading:

Row | logP | Structure (SMILES)
10 | 1.34 | CC(C)NC(=O)NS(=O)(=O)c1ccccc1
11 | 0.99 | CCN(CC)C(=O)NS(=O)(=O)c1ccccc1
12 | 0.9 | CCNC(=O)NS(=O)(=O)c1ccccc1

same assay, conditions: pH 3.5

Row | logD | Structure (SMILES)
13 | -0.45 | CNC(=O)NS(=O)(=O)c1cccnc1
14 | -0.65 | NC(=O)NS(=O)(=O)c1cccnc1
